# System: HIV
# Test: HOS HIV anti-infectivity assay (strain not stated)
# Format: cell-based
# Conditions: HOS HIV anti-infectivity assay; read-out: Activity Level
# Protocol: Compounds were profiled against two HIV-1 viruses, the M-tropic (CCR5 utilizing) Ba-L strain and the T-tropic (CXCR4 utilizing) IIIB strain. Both viruses were propagated in human peripheral blood lymphocytes. Compounds were tested for there ability to block infection of the HOS cell line (expressing hCXCR4/hCCR5/hCD4/pHIV-LTR-luciferase) by either HIV-1 Ba-L or HIV-1 IIIB. Compound cytotoxicity was also examined in the absence of virus addition.
# HOS cells (expressing hCXCR4/hCCR5/hCD4/pHIV-LTR-luciferase) were harvested and diluted in Dulbeccos modified Eagles media supplemented with 2% FCS and non-essential amino acid to a concentration of 60,000 cells/ml. The cells were plated into 96-well plates (100 ul per well) and the plates were placed in a tissue culture incubator (37° C.; 5% CO2/95% air) for a period of 24 h.
# Subsequently, 50 ul of the desired drug solution (4 times the final concentration) was added to each well and the plates were returned to the tissue culture incubator (37° C.; 5% CO2/95% air) for 1 h. Following this incubation 50 ul of diluted virus was added to each well (approximately 2 million RLU per well of virus). The plates were returned to the tissue culture incubator (37° C.; 5% CO2/95% air) and were incubated for a further 96 h.
# Following this incubation the endpoint for the virally infected cultures was quantified following addition of Steady-Glo Luciferase assay system reagent (Promega, Madison, Wis.). Cell viability or non-infected cultures was measured using a CellTiter-Glo luminescent cell viability assay system (Promega, Madison, Wis.). All luminescent readouts are performed on a Topcount luminescence detector (Packard, Meridien, Conn.).
row,SMILES,IC50
1,"CN1CCN(c2cccc3nc(CN(C)C4CCCc5cccnc54)c(C(O)C(F)(F)F)n23)CC1 (stereo not drawn) [Example 89B, 2,2,2-Trifluoro-1-(5-(4-methyl-1-piperazinyl)-2-{[methyl(5,6,7,8-tetrahydro-8-quinolinyl)amino]methyl}imidazo[1,2-a]pyridin-3-yl)ethanol]",0.1 to 0.5 µM

# Same assay, conditions: Human immunodeficiency virus 1, HOS HIV anti-infectivity assay; read-out: Activity Level
row,SMILES,IC50
1,"CN(C)[C@H]1CCN(c2cccc3nc(CN(C)[C@H]4CCCc5cccnc54)c(CO)n23)C1 [Example 58, [5-[(3S)-3-(Dimethylamino)-1-pyrrolidinyl]-2-({methyl[(8S)-5,6,7,8-tetrahydro-8-quinolinyl]amino}methyl)imidazo[1,2-a]pyridin-3-yl]methanol]",< 0.1 µM
2,"CN(Cc1nc2cccc(N3CC[C@@H](N)C3)n2c1CO)[C@H]1CCCc2cccnc21 [Example 60, [5-[(3R)-3-Amino-1-pyrrolidinyl]-2-({methyl[(8S)-5,6,7,8-tetrahydro-8-quinolinyl]amino}methyl)imidazo[1,2-a]pyridin-3-yl]methanol]",< 0.1 µM
3,"CN1CCC(N(C)c2cccc3nc(CN(C)[C@H]4CCCc5cccnc54)c(CO)n23)C1 (stereo partly drawn) [Example 52, [5-[Methyl(1-methyl-3-pyrrolidinyl)amino]-2-({methyl[(8S)-5,6,7,8-tetrahydro-8-quinolinyl]amino}methyl)imidazo[1,2-a]pyridin-3-yl]methanol]",< 0.1 µM
4,"CC(C)N1CCN(c2cccc3nc(CN(C)[C@H]4CCCc5cccnc54)c(CO)n23)CC1 [Example 56, [5-[4-(1-Methylethyl)-1-piperazinyl]-2-({methyl[(8S)-5,6,7,8-tetrahydro-8-quinolinyl]amino}methyl)imidazo[1,2-a]pyridin-3-yl]methanol]",< 0.1 µM
5,"CN[C@@H]1CCN(c2cccc3nc(CN(C)[C@H]4CCCc5cccnc54)c(CO)n23)C1 [Example 63, [5-[(3R)-3-(Methylamino)-1-pyrrolidinyl]-2-({methyl[(8S)-5,6,7,8-tetrahydro-8-quinolinyl]amino}methyl)imidazo[1,2-a]pyridin-3-yl]methanol]",< 0.1 µM
6,"CN(C)[C@@H]1CCN(c2cccc3nc(CN(CC4CC4)[C@H]4CCCc5cccnc54)c(CO)n23)C1 [Example 72, {2-({(Cyclopropylmethyl)[(8S)-5,6,7,8-tetrahydro-8-quinolinyl]amino}methyl)-5-[(3R)-3-(dimethylamino)-1-pyrrolidinyl]imidazo[1,2-a]pyridin-3-yl}methanol]",< 0.1 µM
7,"CN(C)CCN(C)c1cccc2nc(CN(C)[C@H]3CCCc4cccnc43)c(CO)n12 [Example 28, [5-[[2-(Dimethylamino)ethyl](methyl)amino]-2-({methyl[(8S)-5,6,7,8-tetrahydro-8-quinolinyl]amino}methyl)imidazo[1,2-a]pyridin-3-yl]methanol]",< 0.1 µM
8,"CN(C)CCOc1cccc2nc(CN(C)[C@H]3CCCc4cccnc43)c(CO)n12 [Example 78, [5-{[2-(Dimethylamino)ethyl]oxy}-2-({methyl[(8S)-5,6,7,8-tetrahydro-8-quinolinyl]amino}methyl)imidazo[1,2-a]pyridin-3-yl]methanol]",< 0.1 µM
9,"CN(Cc1nc2cccc(N3CCN4CCCC4C3)n2c1CO)[C@H]1CCCc2cccnc21 (stereo partly drawn) [Example 44, [5-(Hexahydropyrrolo[1,2-a]pyrazin-2(1H)-yl)-2-({methyl[(8S)-5,6,7,8-tetrahydro-8-quinolinyl]amino}methyl)imidazo[1,2-a]pyridin-3-yl]methanol]",< 0.1 µM
10,"CN1CCN(c2cccc3nc(CN(C)C4CCCc5cccnc54)c(CO)n23)CC1 (stereo not drawn) [Example 20, (5-(4-Methyl-1-piperazinyl)-2-{[methyl(5,6,7,8-tetrahydro-8-quinolinyl)amino]methyl}imidazo[1,2-a]pyridin-3-yl)methanol]",< 0.1 µM
11,"COCc1c(CN(C)[C@H]2CCCc3cccnc32)nc2cccc(N3CCN(C)CC3)n12 [Example 86, (8S)—N-Methyl-N-{[3-[(methyloxy)methyl]-5-(4-methyl-1-piperazinyl)imidazo[1,2-a]pyridin-2-yl]methyl}-5,6,7,8-tetrahydro-8-quinolinamine]",< 0.1 µM
12,"CCOCc1c(CN(C)[C@H]2CCCc3cccnc32)nc2cccc(N3CCN(C)CC3)n12 [Example 87, (8S)—N-{[3-[(Ethyloxy)methyl]-5-(4-methyl-1-piperazinyl)imidazo[1,2-a]pyridin-2-yl]methyl}-N-methyl-5,6,7,8-tetrahydro-8-quinolinamine]",< 0.1 µM
13,"COc1ccc([C@H](C)N(Cc2nc3cccc(N4CCN(C)CC4)n3c2CO)[C@H]2CCCc3cccnc32)cc1 [Example 22, [2-({{(1S)-1-[4-(Methyloxy)phenyl]ethyl}[(8S)-5,6,7,8-tetrahydro-8-quinolinyl]amino}methyl)-5-(4-methyl-1-piperazinyl)imidazo[1,2-a]pyridin-3-yl]methanol]",< 0.1 µM
14,"CN1CCN(c2cccc3nc(CN(Cc4ccccc4)[C@H]4CCCc5cccnc54)c(CO)n23)CC1 [Example 40, [5-(4-Methyl-1-piperazinyl)-2-({(phenylmethyl)[(8S)-5,6,7,8-tetrahydro-8-quinolinyl]amino}methyl)imidazo[1,2-a]pyridin-3-yl]methanol]",< 0.1 µM
15,"CCN(Cc1nc2cccc(N3CC[C@@H](N(C)C)C3)n2c1CO)[C@H]1CCCc2cccnc21 [Example 66, [5-[(3R)-3-(Dimethylamino)-1-pyrrolidinyl]-2-({ethyl[(8S)-5,6,7,8-tetrahydro-8-quinolinyl]amino}methyl)imidazo[1,2-a]pyridin-3-yl]methanol]",< 0.1 µM
16,"CCCN(Cc1nc2cccc(N3CCN(C)CC3)n2c1CO)[C@H]1CCCc2cccnc21 [Example 36, [5-(4-Methyl-1-piperazinyl)-2-({propyl[(8S)-5,6,7,8-tetrahydro-8-quinolinyl]amino}methyl)imidazo[1,2-a]pyridin-3-yl]methanol]",< 0.1 µM
17,"CN1CCN(c2cccc3nc(CN(CC4CC4)[C@H]4CCCc5cccnc54)c(CO)n23)CC1 [Example 38, [2-({(Cyclopropylmethyl)[(8S)-5,6,7,8-tetrahydro-8-quinolinyl]amino}methyl)-5-(4-methyl-1-piperazinyl)imidazo[1,2-a]pyridin-3-yl]methanol]",< 0.1 µM
18,"CN(Cc1nc2cccc(N3CCCNCC3)n2c1CO)[C@H]1CCCc2cccnc21 [Example 48, [5-(Hexahydro-1H-1,4-diazepin-1-yl)-2-({methyl[(8S)-5,6,7,8-tetrahydro-8-quinolinyl]amino}methyl)imidazo[1,2-a]pyridin-3-yl]methanol]",< 0.1 µM
19,"CN1CCN(c2cccc3nc(CN(C)C4CCCCc5cccnc54)c(CO)n23)CC1 (stereo not drawn) [Example 30, (5-(4-Methyl-1-piperazinyl)-2-{[methyl(6,7,8,9-tetrahydro-5H-cyclohepta[b]pyridin-9-yl)amino]methyl}imidazo[1,2-a]pyridin-3-yl)methanol]",< 0.1 µM
20,"CCC(O)c1c(CN(C)[C@H]2CCCc3cccnc32)nc2cccc(N3CCN(C)CC3)n12 (stereo partly drawn) [Example 85, 1-[5-(4-Methyl-1-piperazinyl)-2-({methyl[(8S)-5,6,7,8-tetrahydro-8-quinolinyl]amino}methyl)imidazo[1,2-a]pyridin-3-yl]-1-propanol]",< 0.1 µM
21,"CC(c1nc2cccc(N3CCN(C)CC3)n2c1CO)N(C)[C@H]1CCCc2cccnc21 (stereo partly drawn) [Example 88, [5-(4-Methyl-1-piperazinyl)-2-(1-{methyl[(8S)-5,6,7,8-tetrahydro-8-quinolinyl]amino}ethyl)imidazo[1,2-a]pyridin-3-yl]methanol]",< 0.1 µM
22,"CN(C)[C@@H]1CCN(c2cccc3nc(CN(C)[C@H]4CCCc5cccnc54)c(CO)n23)C1 [Example 46, [5-[(3R)-3-(Dimethylamino)-1-pyrrolidinyl]-2-({methyl[(8S)-5,6,7,8-tetrahydro-8-quinolinyl]amino}methyl)imidazo[1,2-a]pyridin-3-yl]methanol]",< 0.1 µM
23,"CN1CCN(c2cccc3nc(CN(C)[C@H]4CCCc5cccnc54)c(CO)n23)CC1 [Example 25, [5-(4-Methyl-1-piperazinyl)-2-({methyl[(8S)-5,6,7,8-tetrahydro-8-quinolinyl]amino}methyl)imidazo[1,2-a]pyridin-3-yl]methanol]",< 0.1 µM
24,"CN(Cc1nc2cccc(OCCN3CCCC3)n2c1CO)[C@H]1CCCc2cccnc21 [Example 80, (2-({Methyl[(8S)-5,6,7,8-tetrahydro-8-quinolinyl]amino}methyl)-5-{[2-(1-pyrrolidinyl)ethyl]oxy}imidazo[1,2-a]pyridin-3-yl)methanol]",< 0.1 µM
25,"CCN1CCN(c2cccc3nc(CN(C)[C@H]4CCCc5cccnc54)c(CO)n23)CC1 [Example 54, [5-(4-Ethyl-1-piperazinyl)-2-({methyl[(8S)-5,6,7,8-tetrahydro-8-quinolinyl]amino}methyl)imidazo[1,2-a]pyridin-3-yl]methanol]",< 0.1 µM
26,"CCCN(Cc1nc2cccc(N3CC[C@@H](N(C)C)C3)n2c1CO)[C@H]1CCCc2cccnc21 [Example 68, [5-[(3R)-3-(Dimethylamino)-1-pyrrolidinyl]-2-({propyl[(8S)-5,6,7,8-tetrahydro-8-quinolinyl]amino}methyl)imidazo[1,2-a]pyridin-3-yl]methanol]",< 0.1 µM

# — US20070254910A1, “CHEMICAL COMPOUNDS” (priority 2004, published 2007)
